Several values for one entry are separate records, joined by “and”; a condition that tells them apart may be missing. Equal entries are not always repeated.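 Results reflect a 48-hour exposure of cells in 96-well plates to compound at five concentrations. GI50 marks 50% less growth.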 Activity calls are given as the source filed them. Rule as the data show it: active = GI50 up to about 1.1 µM and inactive = higher.
What was measured:
Experiment in all cases: growth of human tumour cells (NCI), 48 h
MDA-N = test system: MDA-N
ACHN = test system: ACHN
RPMI-8226 = test system: RPMI-8226
HCC 2998 = test system: HCC 2998
Malme-3M = test system: Malme-3M
OVCAR-8 = test system: OVCAR-8
SNB-19 = test system: SNB-19
LOX IMVI = test system: LOX IMVI
OVCAR-4 = test system: OVCAR-4
SF-268 = test system: SF-268
HCT-116 = test system: HCT-116
COLO 205 = test system: COLO 205
A498 = test system: A498
786-0 = test system: 786-0
NCI-H460 = test system: NCI-H460
U-251 = test system: U-251
SK-MEL-2 = test system: SK-MEL-2
MOLT-4 = test system: MOLT-4
HOP-92 = test system: HOP-92
SF-539 = test system: SF-539

Measured: GI50

Cn1c2ccccc2n2c3ncccc3/c(=N/CCCC(=O)O)c(C#N)c12
inactive: MDA-N > 100 µM | ACHN > 100 µM | RPMI-8226 > 100 µM | HCC 2998 > 100 µM | Malme-3M > 100 µM | OVCAR-8 > 100 µM | SNB-19 > 100 µM | LOX IMVI > 100 µM | OVCAR-4 > 100 µM | SF-268 > 100 µM | HCT-116 > 100 µM | COLO 205 > 100 µM | A498 > 100 µM | 786-0 > 100 µM | NCI-H460 > 100 µM | U-251 > 100 µM | SK-MEL-2 > 100 µM | MOLT-4 > 100 µM

COC(=O)c1sc(=S)sc1SCc1ccc(CSc2sc(=S)sc2C(=O)OC)cc1
inactive: MDA-N > 100 µM | ACHN > 100 µM | HCC 2998 > 100 µM | HOP-92 > 100 µM | Malme-3M > 100 µM | OVCAR-8 > 100 µM | SNB-19 > 100 µM | LOX IMVI > 100 µM | OVCAR-4 > 100 µM | SF-268 > 100 µM | HCT-116 > 100 µM | COLO 205 > 100 µM | A498 > 100 µM | 786-0 > 100 µM | NCI-H460 > 100 µM | U-251 > 100 µM | SK-MEL-2 > 100 µM | MOLT-4 > 100 µM

CC(C)OP(=O)(OC(C)C)C(C)(C)O
inactive: MDA-N > 100 µM | ACHN > 100 µM | RPMI-8226 > 100 µM | HCC 2998 > 100 µM | HOP-92 > 100 µM | Malme-3M > 100 µM | OVCAR-8 > 100 µM | SNB-19 > 100 µM | LOX IMVI > 100 µM | OVCAR-4 > 100 µM | SF-268 > 100 µM | SF-539 > 100 µM | HCT-116 > 100 µM | COLO 205 > 100 µM | 786-0 > 100 µM | U-251 > 100 µM | SK-MEL-2 > 100 µM | MOLT-4 > 100 µM

Cc1nc2cc(F)c(F)cc2[nH]c1=O
inactive: MDA-N > 100 µM | ACHN > 100 µM | RPMI-8226 > 100 µM | HCC 2998 > 100 µM | HOP-92 > 100 µM | Malme-3M > 100 µM | OVCAR-8 > 100 µM | SNB-19 > 100 µM | LOX IMVI > 100 µM | OVCAR-4 > 100 µM | SF-268 > 100 µM | SF-539 > 100 µM | HCT-116 > 100 µM | COLO 205 > 100 µM | 786-0 > 100 µM | NCI-H460 > 100 µM | U-251 > 100 µM | SK-MEL-2 > 100 µM | MOLT-4 > 100 µM

Cc1ccc(S(=O)(=O)SC/C=C\CSS(=O)(=O)c2ccc(C)cc2)cc1
inactive: MDA-N 14.4 µM | ACHN 29.6 µM and 25.1 µM | HCC 2998 49.1 µM and 55 µM | HOP-92 14.4 µM and 16.2 µM | Malme-3M 34.7 µM and 20.2 µM | OVCAR-8 18.9 µM and 13.3 µM | SNB-19 34.2 µM and 29.6 µM | SF-268 26.3 µM and 19.8 µM | A498 57.1 µM and 49.4 µM | 786-0 12.2 µM and 17.9 µM | NCI-H460 30.3 µM and 35.6 µM | U-251 15.8 µM and 15.9 µM | SK-MEL-2 47 µM

O=[N+]([O-])c1ccc(OP(=O)(O)OCC2OC(CP(=O)(O)O)C(O)C2O)cc1 (stereo unspecified)
inactive: MDA-N > 100 µM | ACHN > 100 µM | HCC 2998 > 100 µM | HOP-92 > 100 µM | OVCAR-8 > 100 µM | SNB-19 > 100 µM | LOX IMVI > 100 µM | OVCAR-4 > 100 µM | SF-268 > 100 µM | SF-539 > 100 µM | HCT-116 > 100 µM | COLO 205 > 100 µM | A498 > 100 µM | 786-0 > 100 µM | NCI-H460 > 100 µM | U-251 > 100 µM | SK-MEL-2 > 100 µM | MOLT-4 > 100 µM

Nc1nc(Cl)cc(NCC2(CO)CC=CC2)n1
inactive: MDA-N > 100 µM | ACHN > 100 µM | HCC 2998 > 100 µM | HOP-92 > 100 µM | Malme-3M > 100 µM | OVCAR-8 79.8 µM | SNB-19 > 100 µM | LOX IMVI > 100 µM | OVCAR-4 80 µM | SF-268 > 100 µM | SF-539 > 100 µM | HCT-116 > 100 µM | COLO 205 > 100 µM | 786-0 > 100 µM | NCI-H460 > 100 µM | U-251 > 100 µM | SK-MEL-2 > 100 µM | MOLT-4 > 100 µM

O=C(NNc1ccnc2cc(Cl)ccc12)/C(=C\c1ccccc1Cl)NC(=O)c1ccccc1
inactive: MDA-N 37.3 µM | ACHN 25.4 µM | RPMI-8226 29.2 µM | HCC 2998 60 µM | HOP-92 35.6 µM | Malme-3M 52.6 µM | OVCAR-8 20 µM | SNB-19 46.2 µM | LOX IMVI 17.4 µM | OVCAR-4 32.8 µM | SF-268 27.4 µM | SF-539 27.7 µM | HCT-116 42.7 µM | COLO 205 25.2 µM | 786-0 41.6 µM | NCI-H460 42.1 µM | U-251 17.3 µM | SK-MEL-2 19.4 µM

CN(C)CCNC(=O)Cn1cnc2cccc([N+](=O)[O-])c2c1=O
inactive: MDA-N > 100 µM | ACHN > 100 µM | RPMI-8226 > 100 µM | HCC 2998 > 100 µM | Malme-3M > 100 µM | SNB-19 > 100 µM | LOX IMVI > 100 µM | OVCAR-4 > 100 µM | SF-268 > 100 µM | SF-539 > 100 µM | HCT-116 > 100 µM | COLO 205 > 100 µM | A498 > 100 µM | 786-0 > 100 µM | NCI-H460 > 100 µM | U-251 > 100 µM | SK-MEL-2 > 100 µM | MOLT-4 > 100 µM

COc1cc2c(cc1OC)C1CCc3ccccc3CN1CC2 (stereo unspecified)
inactive: MDA-N > 100 µM | ACHN > 100 µM | HCC 2998 > 100 µM | HOP-92 > 100 µM | Malme-3M > 100 µM | OVCAR-8 > 100 µM | SNB-19 > 100 µM | LOX IMVI > 100 µM | OVCAR-4 > 100 µM | SF-268 > 100 µM | SF-539 > 100 µM | HCT-116 > 100 µM | COLO 205 > 100 µM | A498 > 100 µM | 786-0 > 100 µM | NCI-H460 > 100 µM | U-251 > 100 µM | SK-MEL-2 > 100 µM | MOLT-4 > 100 µM

COC(=O)[C@H](Cc1ccccc1)NC(=O)CCCCCCC(=O)NO
inactive: MDA-N 19 µM | ACHN > 100 µM | RPMI-8226 4.62 µM | HCC 2998 16.1 µM | HOP-92 17.3 µM | Malme-3M 2.65 µM | OVCAR-8 5.28 µM | SNB-19 > 100 µM | LOX IMVI 15.4 µM | OVCAR-4 39.8 µM | SF-268 12.3 µM | SF-539 20.6 µM | HCT-116 5.15 µM | COLO 205 54.5 µM | 786-0 28.6 µM | NCI-H460 12.3 µM | U-251 17.3 µM | SK-MEL-2 4.6 µM | MOLT-4 2.7 µM
